{
  "source": "patent US7034208B1",
  "about": "“Ahas inhibiting herbicide resistant wheat and method for selection thereof” (BASF Aktiengellschaft, priority 1991, dated 2006)",
  "key": {"[1]": {"tested_on": "wheat embryos (M3 of FS1-FS4, Fidel)", "assay": "M3 Plant Screen: In vitro (excised embryos cultured on herbicide medium)", "format": "cell-based", "method": "M3 plants from the four initial plant selections (labelled FS1, FS2, FS3 and FS4) are screened for PURSUIT™ resistance in vitro. M3 seeds from each mature infloresence of these initial M2 mutants are disinfested in 70% EtOH for 30 seconds followed by disinfestation in 50% solution containing 2.625% sodium hypochlorite (as described above) for 20 minutes under vaccuum with gentle agitation provided by a stir plate. The seeds are soaked in sterile distilled water in 100×5 mm sterile plastic petri dishes for 20-24 hours after which the embryos are excised and cultured onto medium containing either 10^−4, 10^−5, or 10^−6 M PURSUIT™. […] Embryo ratings are taken at either two and one-half or three weeks after culture initiation."}, "[2]": {"tested_on": "F1 hybrids FS1-FS4 x Fidel and Fidel wheat", "assay": "Genetic Condition Studies Experiment 1, F1 hybrids sprayed", "format": "in vivo", "text": "Experiment 1: Six flats containing Metro Mix 350™ are planted with F1 hybrids derived from each of the following crosses: FS1×Fidel: FS2×Fidel; FS3×Fidel; FS4×Fidel and Fidel (susceptible, parental cultivar). One week later, the flats are sprayed, one flat per herbicide rate, with PURSUIT™ at 50, 100, 150, 200, and 250 g/ha to determine the genetic condition of the herbicide resistant trait in the selections, FS1-FS4. The herbicide is applied with a laboratory belt sprayer at a rate of 950 L/ha with a belt speed of 12.5 sec/rev using sprayer nozzle #40015E. Tween 20™ is used as the surfactant at 0.25% v/v in the herbicide solutions. Plants are rated 10 days after herbicide treatment."}, "[3]": {"tested_on": "wheat selections FS1-FS4 and Fidel", "assay": "Field Trial I", "format": "in vivo", "details": "100 g/ha postemergent, yields 10 weeks after treatment", "method": "A field study is conducted to evaluate the tolerance of the imidazolinone-resistant wheat selections, FS1-FS4, to postemergent applications of imidazolinone herbicides. The variety Fidel, from which these selections are derived, is included as a susceptible check. Because Fidel is a French winter wheat variety and unadapted to New Jersey, this test is intended to evaluate the relative effects of the herbicide treatments on grain yields rather than to measure actual yield potentials for the genotypes. Thus, yields are presented as grams/plot rather than bushels/acre or metric tons/ha.\nM4 bulked seed from parental lines, FS1, FS2, FS3 and FS4 and Fidel wild-type, is used in this field trial. The trial is planted in an incomplete split plot design with the main plot as herbicide-rate combination and the split plot as genotypes. […] The plots are three meters long and 1.5 meters wide (7 rows with 7 inch spacing between rows) with approximately 25 seed planted per row. There is a one meter space between wheat lines and ten meters between replicates.\nTreatments are applied at a rate of 400 L/ha with a tractor mounted sprayer. Tween 20™ is used as a surfactant at 0.25% v/v. Wheat is treated at the Z22 stage or approximately 6 inches tall. Plant height and damage ratings are taken at 3 and 6 weeks after treatment. Yields are taken 10 weeks after treatment."}, "[4]": {"details": "Control 2 = Fidel on medium with herbicide, concentration 10^−5"}, "[5]": {"details": "Control 2 = Fidel on medium with herbicide, concentration 10^−6"}, "[6]": {"details": "Control M3 = M3 seed on medium with herbicide (footnote), section 10^−5"}, "[7]": {"details": "Control M3 = M3 seed on medium with herbicide (footnote), section 10^−6"}, "[8]": {"details": "FS1 M3 embryos, concentration 10^−5"}, "[9]": {"details": "FS1 M3 embryos, concentration 10^−6"}, "[10]": {"details": "FS2 M3 embryos, concentration 10^−5"}, "[11]": {"details": "FS2 M3 embryos, concentration 10^−6"}, "[12]": {"details": "FS3 M3 embryos, concentration 10^−5"}, "[13]": {"details": "FS3 M3 embryos, concentration 10^−6"}, "[14]": {"details": "FS4 M3 embryos, concentration 10^−5"}, "[15]": {"details": "FS4 M3 embryos, concentration 10^−6"}},
  "data": [
    {"smiles": "CCc1cnc(C2=NC(C)(C(C)C)C(=O)N2)c(C(=O)O)c1", "note": "(stereo not shown) [PURSUIT, 5-ethyl-2-(4-isopropyl-4-methyl-5-oxo-2-imidazolin-2-yl)-nicotinic acid]", "values": [
      {"measurement": "Embryo Rating D (Damaged), number of embryos", "setting": "[1]; [4]", "result": 0},
      {"measurement": "Embryo Rating S (Susceptible), number of embryos", "setting": "[1]; [4]", "result": 30},
      {"measurement": "Embryo Rating T (Tolerant), number of embryos", "setting": "[1]; [4]", "result": 0},
      {"measurement": "Embryo Rating D (Damaged), number of embryos", "setting": "[1]; [5]", "result": 0},
      {"measurement": "Embryo Rating S (Susceptible), number of embryos", "setting": "[1]; [5]", "result": 15},
      {"measurement": "Embryo Rating T (Tolerant), number of embryos", "setting": "[1]; [5]", "result": 0},
      {"measurement": "Ave. Shoot Height", "setting": "[1]; [6]", "result": 14.7, "unit": "cm"},
      {"measurement": "Embryo Rating D (Damaged), number of embryos", "setting": "[1]; [6]", "result": 1},
      {"measurement": "Embryo Rating S (Susceptible), number of embryos", "setting": "[1]; [6]", "result": 1},
      {"measurement": "Embryo Rating T (Tolerant), number of embryos", "setting": "[1]; [6]", "result": 27},
      {"measurement": "Range Shoot Heights", "setting": "[1]; [6]", "result": "1-28 cm"},
      {"measurement": "Ave. Shoot Height", "setting": "[1]; [7]", "result": 14.6, "unit": "cm"},
      {"measurement": "Embryo Rating D (Damaged), number of embryos", "setting": "[1]; [7]", "result": 0},
      {"measurement": "Embryo Rating S (Susceptible), number of embryos", "setting": "[1]; [7]", "result": 0},
      {"measurement": "Embryo Rating T (Tolerant), number of embryos", "setting": "[1]; [7]", "result": 15},
      {"measurement": "Range Shoot Heights", "setting": "[1]; [7]", "result": "2-28 cm"},
      {"measurement": "Embryo Rating D (Damaged), number of embryos", "setting": "[1]; [8]", "result": 16},
      {"measurement": "Embryo Rating S (Susceptible), number of embryos", "setting": "[1]; [8]", "result": 42},
      {"measurement": "Embryo Rating T (Tolerant), number of embryos", "setting": "[1]; [8]", "result": 21},
      {"measurement": "Range Shoot Heights", "setting": "[1]; [8]", "result": "0-1.5 cm"},
      {"measurement": "Ave. Shoot Height", "setting": "[1]; [9]", "result": 9.1, "unit": "cm"},
      {"measurement": "Embryo Rating D (Damaged), number of embryos", "setting": "[1]; [9]", "result": 0},
      {"measurement": "Embryo Rating S (Susceptible), number of embryos", "setting": "[1]; [9]", "result": 0},
      {"measurement": "Embryo Rating T (Tolerant), number of embryos", "setting": "[1]; [9]", "result": 70},
      {"measurement": "Range Shoot Heights", "setting": "[1]; [9]", "result": "1-22 cm"},
      {"measurement": "Embryo Rating D (Damaged), number of embryos", "setting": "[1]; [10]", "result": 14},
      {"measurement": "Embryo Rating S (Susceptible), number of embryos", "setting": "[1]; [10]", "result": 45},
      {"measurement": "Embryo Rating T (Tolerant), number of embryos", "setting": "[1]; [10]", "result": 21},
      {"measurement": "Range Shoot Heights", "setting": "[1]; [10]", "result": "0-3.5 cm"},
      {"measurement": "Ave. Shoot Height", "setting": "[1]; [11]", "result": 11.4, "unit": "cm"},
      {"measurement": "Embryo Rating D (Damaged), number of embryos", "setting": "[1]; [11]", "result": 1},
      {"measurement": "Embryo Rating S (Susceptible), number of embryos", "setting": "[1]; [11]", "result": 0},
      {"measurement": "Embryo Rating T (Tolerant), number of embryos", "setting": "[1]; [11]", "result": 64},
      {"measurement": "Range Shoot Heights", "setting": "[1]; [11]", "result": "1-23 cm"},
      {"measurement": "Embryo Rating D (Damaged), number of embryos", "setting": "[1]; [12]", "result": 9},
      {"measurement": "Embryo Rating S (Susceptible), number of embryos", "setting": "[1]; [12]", "result": 58},
      {"measurement": "Embryo Rating T (Tolerant), number of embryos", "setting": "[1]; [12]", "result": 12},
      {"measurement": "Range Shoot Heights", "setting": "[1]; [12]", "result": "0-4.5 cm"},
      {"measurement": "Ave. Shoot Height", "setting": "[1]; [13]", "result": 5.2, "unit": "cm"},
      {"measurement": "Embryo Rating D (Damaged), number of embryos", "setting": "[1]; [13]", "result": 12},
      {"measurement": "Embryo Rating S (Susceptible), number of embryos", "setting": "[1]; [13]", "result": 22},
      {"measurement": "Embryo Rating T (Tolerant), number of embryos", "setting": "[1]; [13]", "result": 34},
      {"measurement": "Range Shoot Heights", "setting": "[1]; [13]", "result": "1-23 cm"},
      {"measurement": "Embryo Rating D (Damaged), number of embryos", "setting": "[1]; [14]", "result": 15},
      {"measurement": "Embryo Rating S (Susceptible), number of embryos", "setting": "[1]; [14]", "result": 31},
      {"measurement": "Embryo Rating T (Tolerant), number of embryos", "setting": "[1]; [14]", "result": 16},
      {"measurement": "Range Shoot Heights", "setting": "[1]; [14]", "result": "0-3.0 cm"},
      {"measurement": "Ave. Shoot Height", "setting": "[1]; [15]", "result": 13.4, "unit": "cm"},
      {"measurement": "Embryo Rating D (Damaged), number of embryos", "setting": "[1]; [15]", "result": 8},
      {"measurement": "Embryo Rating S (Susceptible), number of embryos", "setting": "[1]; [15]", "result": 13},
      {"measurement": "Embryo Rating T (Tolerant), number of embryos", "setting": "[1]; [15]", "result": 59},
      {"measurement": "Range Shoot Heights", "setting": "[1]; [15]", "result": "1-33 cm"},
      {"measurement": "embryos that germinate", "setting": "[1]; Fidel controls or M3 embryos, medium containing 10^−4 M", "result": "None of the embryos"},
      {"measurement": "tolerance of embryos", "setting": "[1]; M3 embryos, 10^−5 M in the medium, still considerable growth inhibition", "result": "somewhat tolerant"},
      {"measurement": "rate at which Fidel is killed", "setting": "[2]; Fidel, rated 10 days after treatment", "result": 150, "unit": "g/ha"},
      {"measurement": "damage to Fidel", "setting": "[2]; Fidel, rates of 50 and 100 g/ha", "result": "severely injured"},
      {"measurement": "damage to F1 hybrids", "setting": "[2]; hybrids FS1-FS4 x Fidel, 250 g/ha, rated 10 days after treatment", "result": "stunted but not killed"},
      {"measurement": "yield reduction", "setting": "[3]", "result": 35, "unit": "%"}
    ]}
  ]
}
